Patent publication US10688082B2, “Aminopyrazine compounds with A2A antagonist properties” (Merck Sharp & Dohme Corp., priority 2015, dated 2020)
pKi: −log10 of the molar value.

Target: T1, human A2a receptor (Homo sapiens, UniProt P29274)
T1 construct: purchased Perkin-Elmer RBHA2AM400UA; host or cells: HEK293 cells (membranes)
Assay: Competition binding assay using Scintillation Proximity technology (A2a activity)
Experimental: Binding affinities of compounds of the invention for the human A2a receptor were determined in a competition binding assay using Scintillation Proximity technology. Thus, […] from HEK293 cells expressing the human A2a receptor were incubated with a compound of the invention at concentrations ranging from 3000 nM to 0.15 nM in a reaction mixture containing also 0.5 nM of a tritiated form of 5-amino-7-[2-phenethyl]-2-(furan-2-yl)-7H-pyrazolo[4,3-e][1,2,4]triazolo[1,5-c]pyrimidine (the tritiated compound) and 100 μg of wheat germ agglutin-coated yttrium silicate SPA beads for one hour at room temperature with agitation. The beads were then allowed to settle to the bottom of the wells for 1 hr, after which the membrane-associated radioactivity was determined by scintillation counting in a TopCount microplate reader. Ki values were determined using the Cheng-Prusoff equation.
HEK293 cells expressing the human, rat, dog or monkey adenosine 2a receptor (Purchased from Perkin-Elmer # RBHA2AM400UA).
The Tritiated compound was prepared according to published methods.
Wheat germ agglutinin-coated yttrium silicate SPA beads (GE Healthcare # RPNQ0023). Dilute to 25 mg/ml in assay buffer.
Assay Buffer was prepared using Dulbecco's calcium and magnesium free phosphate buffered saline+10 mM MgCl2
Adenosine deaminase from calf intestine, 10 mg/2 ml (Roche #10 102 105 001).
A2a antagonist standard (9-chloro-1-(2-furanyl)-[1,2,4]triazolo1,5-c]quinazolin-5-amine from Tocris Bioscience)
Make eight 1:3 serial dilutions in 100% DMSO from a 3 mM compound stock
Transfer 50 nl of compound into a 384-well OptiPlate (Perkin Elmer).
Typically, final concentrations of compound used in the assay ranged from 3000 nM to 0.152 nM.
Dilute a solution of the Tritiated compound to 1.25 nM in assay buffer. This is a 2.5× solution. The final concentration in the assay is 0.5 nM. Calculate the concentration by counting two 5 μl aliquots.
Use 0.25 ug of membrane/well. Dilute membranes to 9.7 μg/ml in assay buffer. Treat with 20 ug/ml adenosine deaminase (ADA) for 15 minutes at room temperature to degrade endogenous adenosine.
Use 100 μg/well wheat germ agglutinin-coated yttrium silicate SPA beads.
Mix ADA-treated membranes and SPA beads together for 30 min prior to assay.
To the Perkin-Elmer Optiplate-384 containing the compound titration add 20 μl of 2.5× solution of the Tritiated compound and 30 μl of the membrane-bead mixture. Incubate for one hour at room temperature with agitation.
Include total binding (assay buffer+1% DMSO) and non-specific binding (CGS15943, 1 μM) wells.
Allow the beads to settle for one hour.
A curve fitting program (i.e., Prism, Activity Base, Chemcart) is used to determine the EC50. The Ki value is calculated using the Cheng-Prusoff equation. K i=EC50/(1+(radioligand concentration/Kd))

[1] = membranes from HEK293 cells expressing the human A2a receptor, 0.5 nM tritiated ligand, Cheng-Prusoff

T1 sequence (P29274 whole entry): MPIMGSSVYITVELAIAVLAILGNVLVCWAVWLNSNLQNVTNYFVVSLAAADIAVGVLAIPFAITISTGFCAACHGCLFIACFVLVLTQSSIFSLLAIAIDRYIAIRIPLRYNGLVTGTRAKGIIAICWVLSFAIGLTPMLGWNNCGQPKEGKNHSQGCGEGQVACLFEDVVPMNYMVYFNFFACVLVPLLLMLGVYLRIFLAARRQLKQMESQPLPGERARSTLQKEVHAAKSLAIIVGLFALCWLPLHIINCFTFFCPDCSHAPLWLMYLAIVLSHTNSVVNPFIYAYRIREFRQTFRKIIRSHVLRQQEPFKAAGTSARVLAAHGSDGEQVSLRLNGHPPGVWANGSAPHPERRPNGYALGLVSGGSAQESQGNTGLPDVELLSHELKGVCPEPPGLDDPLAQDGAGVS

Row | pKi [1] | pKi (same protocol) | Compound
1 | 7.80 |  | COc1cccc2c1nc(N)n1nc(Cc3cccc4ccccc34)cc21 [Ex-7, 7-methoxy-2-(naphthalen-1-ylmethyl)pyrazolo[1,5-c]quinazolin-5-amine]
2 | 7.47 |  | COc1cccc2c1nc(N)n1nc(Cc3ccccc3OC(F)(F)F)cc21 [Ex-46, 7-methoxy-2-(2-(trifluoromethoxy)benzyl)pyrazolo[1,5-c]quinazolin-5-amine]
3 | 7.77 |  | COc1cccc2c1nc(N)n1nc(Cc3ccccc3CN3CCCC3)cc21 [Ex-29, 7-methoxy-2-(2-(pyrrolidin-1-ylmethyl)benzyl)pyrazolo[1,5-c]quinazolin-5-amine]
4 | 7.96 |  | COc1cccc2c1nc(N)n1nc(C(=O)N3CCN(Cc4ccccc4)CC3)cc21 [Ex-71, (5-amino-7-methoxypyrazolo[1,5-c]quinazolin-2-yl)(4-benzylpiperazin-1-yl)methanone]
5 | 9.00 |  | COc1ccccc1Cc1cc2c3cccc(OC)c3nc(N)n2n1 [Ex-32, 7-methoxy-2-(2-methoxybenzyl)pyrazolo[1,5-c]quinazolin-5-amine]
6 | 8.52 |  | COc1cccc2c1nc(N)n1nc(Cc3ccccc3N3CCOCC3)cc21 [Ex-18, 7-methoxy-2-(2-morpholinobenzyl)pyrazolo[1,5-c]quinazolin-5-amine]
7 | 9.00 |  | COc1cccc2c1nc(N)n1nc(Cc3ccccc3F)cc21 [Ex-30, 2-(2-fluorobenzyl)-7-methoxypyrazolo[1,5-c]quinazolin-5-amine]
8 | 8.52 |  | COc1cccc2c1nc(N)n1nc(Cc3cccc4cccnc34)cc21 [Ex-9, 7-methoxy-2-(quinolin-8-ylmethyl)pyrazolo[1,5-c]quinazolin-5-amine]
9 | 7.77 |  | COc1cccc2c1nc(N)n1nc(Cc3ccccc3C(F)(F)F)cc21 [Ex-17, 7-methoxy-2-(2-(trifluoromethyl)benzyl)pyrazolo[1,5-c]quinazolin-5-amine]
10 |  | 8.05 | COc1cccc2c1nc(N)n1nc(Cc3ccccc3)cc21 [Ex-4, 2-benzyl-7-methoxypyrazolo[1,5-c]quinazolin-5-amine]
11 | 7.46 |  | COc1cccc2c1nc(N)n1nc(Cc3cccc(Cl)c3)cc21 [Ex-49, 2-(3-chlorobenzyl)-7-methoxypyrazolo[1,5-c]quinazolin-5-amine]
12 | 8.30 |  | COc1cccc2c1nc(N)n1nc(Cc3cccc4[nH]ccc34)cc21 [Ex-41, 2-((1H-indol-4-yl)methyl)-7-methoxypyrazolo[1,5-c]quinazolin-5-amine]

Continued, compound first:

Row | Compound | pKi [1] | pKi (same protocol)
13 | Nc1nc2ccccc2c2cc(Cc3ccnc4ccccc34)nn12 [Ex-95, 2-(quinolin-4-ylmethyl)pyrazolo[1,5-c]quinazolin-5-amine] | 7.17 | 
14 | COc1cccc2c1nc(N)n1nc(Cc3ccc(F)cc3F)cc21 [Ex-6, 2-(2,4-difluorobenzyl)-7-methoxypyrazolo[1,5-c]quinazolin-5-amine] | 8.00 | 
15 | COCCOc1ccc(N2CCN(CCOc3cccc4c3nc(N)n3nc(-c5ccco5)cc43)CC2)cc1 [Ex-3, 2-(furan-2-yl)-7-(2-(4-(4-(2-methoxyethoxy)phenyl)piperazin-1-yl)ethoxy)pyrazolo[1,5-c]quinazolin-5-amine] | 6.17 | 
16 | COc1cccc2c1nc(N)n1nc(Cc3cc(Cl)cc(C#N)c3)cc21 [Ex-62, 3-((5-amino-7-methoxypyrazolo[1,5-c]quinazolin-2-yl)methyl)-5-chlorobenzonitrile] | 6.87 | 
17 | COc1cccc2c1nc(N)n1nc(Cc3ccc(F)c(F)c3F)cc21 [Ex-39, 7-methoxy-2-(2,3,4-trifluorobenzyl)pyrazolo[1,5-c]quinazolin-5-amine] | 7.57 | 
18 | COc1cccc2c1nc(N)n1nc(Cc3cccc(-n4cccn4)c3)cc21 [Ex-58, 2-(3-(1H-pyrazol-1-yl)benzyl)-7-methoxypyrazolo[1,5-c]quinazolin-5-amine] | 7.16 | 
19 | COc1cccc2c1nc(N)n1nc(C(=O)N3CCC4(CCN(C(C)=O)C4)C3)cc21 (centres unmarked) [Ex-87, 1-(7-(5-amino-7-methoxypyrazolo[1,5-c]quinazoline-2-carbonyl)-2,7-diazaspiro[4.4]nonan-2-yl)ethan-1-one] | 8.05 | 
20 | COc1cccc2c1nc(N)n1nc(-c3nc(Cc4ccccc4)no3)cc21 [Ex-93, 2-(3-benzyl-1,2,4-oxadiazol-5-yl)-7-methoxypyrazolo[1,5-c]quinazolin-5-amine] | 7.35 | 
21 | COc1cccc2c1nc(N)n1nc(Cc3c(F)cccc3F)cc21 [Ex-42, 2-(2,6-difluorobenzyl)-7-methoxypyrazolo[1,5-c]quinazolin-5-amine] | 8.52 | 
22 | COCc1cccc(Cc2cc3c4cccc(OC)c4nc(N)n3n2)c1 [Ex-48, 7-methoxy-2-(3-(methoxymethyl)benzyl)pyrazolo[1,5-c]quinazolin-5-amine] | 7.40 | 
23 | COc1cccc2c1nc(N)n1nc(Cc3ccc4[nH]ncc4c3)cc21 [Ex-16, 2-((1H-indazol-5-yl)methyl)-7-methoxypyrazolo[1,5-c]quinazolin-5-amine] | 6.88 | 
24 | COc1cccc2c1nc(N)n1nc(C(=O)NCc3cccc4cccnc34)cc21 [Ex-91, 5-amino-7-methoxy-N-(quinolin-8-ylmethyl)pyrazolo[1,5-c]quinazoline-2-carboxamide] | 9.40 | 
25 | Nc1nc2c(F)cccc2c2cc(C(=O)N3CCN(c4ccccn4)CC3)nn12 [Ex-110, (5-amino-7-fluoropyrazolo[1,5-c]quinazolin-2-yl)(4-(pyridin-2-yl)piperazin-1-yl)methanone] | 7.49 | 
26 | COc1cccc2c1nc(N)n1nc(Cc3cccc(C#N)c3)cc21 [Ex-52, 3-((5-amino-7-methoxypyrazolo[1,5-c]quinazolin-2-yl)methyl)benzonitrile] | 7.48 | 
27 | COc1cccc2c1nc(N)n1nc(Cc3cccc(C(F)(F)F)c3)cc21 [Ex-36, 7-methoxy-2-(3-(trifluoromethyl)benzyl)pyrazolo[1,5-c]quinazolin-5-amine] | 7.92 | 
28 | COc1cccc2c1nc(N)n1nc(C(=O)N3CCC4(CCN(C(=O)OC(C)(C)C)C4)CC3)cc21 [Ex-83, tert-butyl 8-(5-amino-7-methoxy-pyrazolo[1,5-c]quinazoline-2-carbonyl)-2,8-diazaspiro[4.5]decane-2-carboxylate] | 7.10 | 
29 | COc1cccc2c1nc(N)n1nc(Cc3cncnc3)cc21 [Ex-10, 7-methoxy-2-(pyrimidin-5-ylmethyl)pyrazolo[1,5-c]quinazolin-5-amine] | 7.44 | 
30 | COc1cccc2c1nc(N)n1nc(Cc3ccccc3OCc3ccccc3)cc21 [Ex-51, 2-(2-(benzyloxy)benzyl)-7-methoxypyrazolo[1,5-c]quinazolin-5-amine] | 6.89 | 
31 | COc1cccc2c1nc(N)n1nc(Cc3cccc4cnccc34)cc21 [Ex-44, 2-(isoquinolin-5-ylmethyl)-7-methoxypyrazolo[1,5-c]quinazolin-5-amine] | 7.74 | 
32 | COc1cccc2c1nc(N)n1nc(C(=O)N(C)Cc3cccc4cccnc34)cc21 [Ex-82, 5-amino-7-methoxy-N-methyl-N-(quinolin-8-ylmethyl)pyrazolo[1,5-c]quinazoline-2-carboxamide] | 8.15 | 
33 | COc1cccc2c1nc(N)n1nc(Cc3ccc(C(F)(F)F)cc3)cc21 [Ex-35, 7-methoxy-2-(4-(trifluoromethyl)benzyl)pyrazolo[1,5-c]quinazolin-5-amine] | 6.89 | 
34 | CCN1CCC2(CCN(C(=O)c3cc4c5cccc(OC)c5nc(N)n4n3)C2)C1 (centres unmarked) [Ex-89, (5-amino-7-methoxypyrazolo[1,5-c]quinazolin-2-yl)(7-ethyl-2,7-diazaspiro[4.4]nonan-2-yl)methanone] | 7.37 | 
35 | COc1cccc2c1nc(N)n1nc(Cc3cnn(C)c3)cc21 [Ex-37, 7-methoxy-2-((1-methyl-1H-pyrazol-4-yl)methyl)pyrazolo[1,5-c]quinazolin-5-amine] | 7.82 | 
36 | COc1cccc2c1nc(N)n1nc(C(=O)N3CCC4(CCNC4)C3)cc21 (centres unmarked) [Ex-86, (5-amino-7-methoxypyrazolo[1,5-c]quinazolin-2-yl)(2,7-diazaspiro[4.4]nonan-2-yl)methanone] | 7.11 | 
37 | COc1cccc2c1nc(N)n1nc(C(=O)N3CCN(c4ccc(F)cc4F)CC3)cc21 [Ex-78, (5-amino-7-methoxypyrazolo[1,5-c]quinazolin-2-yl)(4-(2,4-difluorophenyl)piperazin-1-yl)methanone] | 9.52 | 
38 | COc1cccc2c1nc(N)n1nc(C(=O)N3CCCCC3)cc21 [Ex-72, (5-amino-7-methoxypyrazolo[1,5-c]quinazolin-2-yl)(piperidin-1-yl)methanone] | 7.43 | 
